Laboratory results reported in US20090175911A1, “Bacterial Production of Carotenoids” (ROYAL HOLLOWAY AND BEDFORD NEW COLLEGE, priority 2005, published 2009).
Converted amounts (≈) assume the structure as drawn. Read-outs that look alike come from different tables or passages of the source.

How the values were obtained:
[1] = tested on: PY79; experiment: MIC determination; assay type: cell-based; conditions: Bacillus subtilis
[2] = tested on: HU36; experiment: MIC determination; assay type: cell-based; conditions: Bacillus
[3] = tested on: PY79; experiment: Disc diffusion antibiogram; conditions: 6 mm discs, amount per disc in brackets after each antibiotic, 18 h at 37° C., three experiments
[4] = tested on: Natto; experiment: Disc diffusion antibiogram; conditions: 6 mm discs, amount per disc in brackets after each antibiotic, 18 h at 37° C., three experiments
[5] = tested on: HU36; experiment: Disc diffusion antibiogram; assay type: cell-based, Bacillus
[6] = Gastric stability of carotenoids in simulated gastric fluid (SGF); assay type: in vitro ADME; conditions: SGF (1 mg/ml pepsin, 0.9% NaCl, pH 2), 37° C., by 20 minutes, versus 0 minutes
[7] = strains with MICs equal or higher are considered resistant, cited from earlier work

Row | Compound | MIC [1] | MIC [2] | Zone of inhibition (mm) [3] | Zone of inhibition (mm) [4] | further results
1 | CC(C)(O/N=C(\C(=O)N[C@@H]1C(=O)N2C(C(=O)[O-])=C(C[n+]3ccccc3)CS[C@H]12)c1csc(N)n1)C(=O)O [Ceftazidime] | 0.025 µg/mL (≈ 0.0457 µM) | 0.05 µg/mL (≈ 0.0915 µM) |  |  | 
2 | O=C(O)c1cn(C2CC2)c2cc(N3CCNCC3)c(F)cc2c1=O [Ciporfloxacin] |  |  | 32.8 ± 1 mm | 33.3 ± 1.5 mm | Zone of inhibition (mm) [5]: 29.7 ± 0.6 mm
3 | CCC[C@@H]1C[C@@H](C(=O)N[C@@H]([C@H]2O[C@H](SC)[C@H](O)[C@@H](O)[C@H]2O)[C@H](C)Cl)N(C)C1 [Clindamycin] | 0.05 µg/mL (≈ 0.118 µM) | 8 µg/mL (≈ 18.8 µM) |  |  | 
4 | CCn1cc(C(=O)O)c(=O)c2ccc(C)nc21 [Naladixic acid] |  |  | 20.7 ± 1.2 mm | 23 ± 1.7 mm | Zone of inhibition (mm) ([5]; HU36, 6 mm discs, amount per disc in brackets after each antibiotic, 18 h at 37° C., three experiments): 22.8 ± 1.4 mm
5 | CC1=C(/C=C/C(C)=C/C=C/C(C)=C/C=C/C=C(C)/C=C/C=C(C)/C=C/C2=C(C)CCCC2(C)C)C(C)(C)CCC1 [carotenoid standard, beta-carotene] |  |  |  |  | carotenoid remaining [6]: less than 1%
6 | Gentamycin |  |  |  |  | Breakpoints EFSA ([7]; (EFSA, 2005)): 4 mg/L; Breakpoints SCAN ([7]; (SCAN, 2002)): 8 mg/L
